Reference: patent US20240226115A1, “AXL INHIBITOR COMPOUNDS” (ARCUS BIOSCIENCES, INC., priority 2021, published 2024)

How the values were obtained:
recombinant human MER = biological target: T1, recombinant human MER (Homo sapiens, UniProt Q12866); assay: HTRF KinEASE-TK biochemical potency, MER; details: 1 nM MER, 700 μM ATP
T1 construct: purchased Invitrogen
T1 sequence (Q12866 21-999): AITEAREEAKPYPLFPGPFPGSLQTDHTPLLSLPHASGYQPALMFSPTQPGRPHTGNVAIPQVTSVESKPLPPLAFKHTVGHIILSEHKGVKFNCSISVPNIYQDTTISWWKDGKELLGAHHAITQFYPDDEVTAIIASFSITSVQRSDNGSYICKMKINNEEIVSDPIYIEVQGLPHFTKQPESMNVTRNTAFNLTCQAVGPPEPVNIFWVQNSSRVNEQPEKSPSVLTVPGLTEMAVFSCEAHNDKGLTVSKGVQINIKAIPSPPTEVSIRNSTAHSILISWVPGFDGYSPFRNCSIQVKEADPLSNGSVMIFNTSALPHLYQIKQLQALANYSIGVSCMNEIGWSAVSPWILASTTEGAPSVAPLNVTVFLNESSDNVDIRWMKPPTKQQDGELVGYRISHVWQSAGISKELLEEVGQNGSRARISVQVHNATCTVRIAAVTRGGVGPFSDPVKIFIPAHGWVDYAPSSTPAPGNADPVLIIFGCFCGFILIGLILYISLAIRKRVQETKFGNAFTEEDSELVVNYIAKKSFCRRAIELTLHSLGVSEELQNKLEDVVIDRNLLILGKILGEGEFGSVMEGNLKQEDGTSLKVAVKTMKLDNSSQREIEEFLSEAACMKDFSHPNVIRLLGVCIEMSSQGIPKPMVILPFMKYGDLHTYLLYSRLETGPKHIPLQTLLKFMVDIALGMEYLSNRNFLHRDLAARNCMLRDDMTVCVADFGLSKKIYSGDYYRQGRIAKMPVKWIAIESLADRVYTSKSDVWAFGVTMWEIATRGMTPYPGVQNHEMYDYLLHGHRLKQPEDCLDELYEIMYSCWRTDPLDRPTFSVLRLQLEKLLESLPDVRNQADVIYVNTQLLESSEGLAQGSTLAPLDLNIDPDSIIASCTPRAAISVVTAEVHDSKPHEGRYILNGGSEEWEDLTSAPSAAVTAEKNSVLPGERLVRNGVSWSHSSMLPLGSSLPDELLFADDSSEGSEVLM
Experimental: Purified recombinant human AXL, TYRO3 and MER proteins were purchased from Invitrogen™. 10 nM AXL, 2 nM TYRO3 or MER were incubated with varying concentrations of compounds in 50 mM HEPES, pH 7.4, 10 mM MgCl2, 0.01% BSA, 1 mM DTT and 2% DMSO in a total volume of 20 μl in a 384-well microplate (Corning™ #3640) at RT for 1 h. The AXL, TYRO3 and MER enzymatic reaction was initiated by transferring 10 μl of enzyme and compound mixture into 10 μl of 1.6 μM TK Substrate-biotin (HTRF® KinEASE-TK kit, Cisbio) and 1400 μM ATP pre-incubated in 50 mM HEPES, pH 7.4, 10 mM MgCl2, 0.01% BSA, 1 mM DTT in a 384-well microplate (Corning™ #3640) at RT, giving the final reaction conditions: 5 nM AXL, 1 nM TYRO3 or MER, 800 nM TK Substrate-biotin and 700 μM ATP in 50 mM HEPES, pH 7.4, 10 mM MgCl2, 0.01% BSA, 1 mM DTT and 1% DMSO with varying concentrations of compounds. Following 2 h incubation at RT, the AXL, TYRO3 and MER enzymatic reaction was stopped by transfer of 10 μl of reaction into 10 μl of detection mix (400 nM Streptavidin-XL665, 200-fold dilution TK Antibody-Cryptate and detection buffer, HTRF® KinEASE-TK kit, Cisbio) in a white 384-well microplate (Perkin Elmer, OptiPlate 384). After 1 h incubation at RT, the plate was put into a plate reader (Evision) to read at 665/620 nm (acceptor/donor) for HTRF. The value of the DMSO blank (MIN inhibition=100% activity) was used as a negative control. The positive control was established by adding 5 μl of enzyme and DMSO mixture into 10 μl of detection mix followed by addition of 5 μl of TK Substrate-biotin and ATP mixture (MAX inhibition=0% activity). To calculate the percent activity, Equation 1 was used. Ratio665/620 is the value at a given compound concentration: […]

Axl = biological target: T2, Axl (Homo sapiens, UniProt P30530); assay: HTRF KinEASE-TK biochemical potency, AXL; set-up: purchased Invitrogen; details: 5 nM AXL, 700 μM ATP
T2 sequence (P30530 26-894): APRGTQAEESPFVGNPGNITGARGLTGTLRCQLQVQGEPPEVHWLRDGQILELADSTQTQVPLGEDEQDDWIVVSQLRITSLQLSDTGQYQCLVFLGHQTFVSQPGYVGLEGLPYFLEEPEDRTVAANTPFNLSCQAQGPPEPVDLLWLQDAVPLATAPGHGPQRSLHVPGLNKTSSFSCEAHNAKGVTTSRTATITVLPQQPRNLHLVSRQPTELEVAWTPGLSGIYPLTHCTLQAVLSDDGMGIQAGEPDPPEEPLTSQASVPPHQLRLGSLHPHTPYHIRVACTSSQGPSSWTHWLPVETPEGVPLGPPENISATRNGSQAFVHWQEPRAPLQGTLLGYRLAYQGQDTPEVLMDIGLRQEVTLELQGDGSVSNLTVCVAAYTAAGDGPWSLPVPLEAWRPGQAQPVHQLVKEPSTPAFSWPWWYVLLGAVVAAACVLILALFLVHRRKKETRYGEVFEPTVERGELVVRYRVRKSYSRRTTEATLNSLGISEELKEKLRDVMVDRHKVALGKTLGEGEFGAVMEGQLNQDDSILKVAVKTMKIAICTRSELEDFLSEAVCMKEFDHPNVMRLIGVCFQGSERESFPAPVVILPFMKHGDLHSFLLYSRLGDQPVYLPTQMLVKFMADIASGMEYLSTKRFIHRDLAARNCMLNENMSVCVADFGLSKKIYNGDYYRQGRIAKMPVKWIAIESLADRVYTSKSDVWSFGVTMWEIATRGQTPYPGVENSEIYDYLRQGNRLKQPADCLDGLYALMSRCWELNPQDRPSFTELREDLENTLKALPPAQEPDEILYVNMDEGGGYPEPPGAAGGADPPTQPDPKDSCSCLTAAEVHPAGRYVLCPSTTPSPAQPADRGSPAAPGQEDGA
In short: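 Enzyme preincubated with compound 1 h at RT; final 5 nM AXL or 1 nM TYRO3/MER, 800 nM TK substrate-biotin, 700 μM ATP, HEPES pH 7.4, MgCl2, 1% DMSO, 2 h at RT. HTRF 665/620 ratio read after streptavidin-XL665/cryptate antibody detection; percent activity relative to DMSO and pre-stopped controls.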

Compound | IC50 (recombinant human MER) [nM] | IC50 (Axl) [nM]
O=C1NCCOc2cc(-c3n[nH]c4ncc(-c5ccc6c(c5)CCNC6)cc34)ccc21 [Example 54, 8-(5-(1,2,3,4-Tetrahydroisoquinolin-6-yl)-1H-pyrazolo[3,4-b]pyridin-3-yl)-3,4-dihydrobenzo[f][1,4]oxazepin-5(2H)-one] | 100 to 1000 | < 100
O=C1NCCOc2cc(-c3n[nH]c4ncc(-c5ccc6c(c5)CCN(C5CC5)CC6)cc34)ccc21 [Example 20, 8-(5-(3-Cyclopropyl-2,3,4,5-tetrahydro-1H-benzo[d]azepin-7-yl)-1H-pyrazolo[3,4-b]pyridin-3-yl)-3,4-dihydrobenzo[f][1,4]oxazepin-5(2H)-one] | 100 to 1000 | < 100
O=C1NCCOc2cc(-c3n[nH]c4ncc(-c5ccc6c(c5)CCC(N5CCOCC5)CC6)cc34)ccc21 (stereo not shown) [Example 47, 8-{5-[7-(Morpholin-4-yl)-6,7,8,9-tetrahydro-5H-benzo[7]annulen-2-yl]-1H-pyrazolo[3,4-b]pyridin-3-yl}-2,3,4,5-tetrahydro-1,4-benzoxazepin-5-one] | < 100 | < 100
C[C@@H]1CCCN1C1CCc2ccc(-c3cnc4[nH]nc(-c5ccc6c(c5)O[C@@H](C)CNC6=O)c4c3)cc2CC1 (stereo partly drawn) [Example 62, (2S)-2-Methyl-8-(5-{7-[(2R)-2-methylpyrrolidin-1-yl]-6,7,8,9-tetrahydro-5H-benzo[7]annulen-2-yl}-1H-pyrazolo[3,4-b]pyridin-3-yl)-2,3,4,5-tetrahydro-1,4-benzoxazepin-5-one] | < 100 | < 100
Cc1cc2c(cc1-c1n[nH]c3ncc(-c4ccc5c(c4)CCC(N4CCC[C@H]4C)CC5)cc13)OCCNC2=O (stereo partly drawn) [Example 40, 7-Methyl-8-(5-{7-[(2R)-2-methylpyrrolidin-1-yl]-6,7,8,9-tetrahydro-5H-benzo[7]annulen-2-yl}-1H-pyrazolo[3,4-b]pyridin-3-yl)-2,3,4,5-tetrahydro-1,4-benzoxazepin-5-one] | 100 to 1000 | < 100
C[C@@H]1CCCN1C1CCc2ccc(-c3cnc4[nH]nc(-c5ccc6c(c5)OCCNC6=O)c4c3)cc2CC1 (stereo partly drawn) [Example 44, 8-(5-{7-[(2R)-2-Methylpyrrolidin-1-yl]-6,7,8,9-tetrahydro-5H-benzo[7]annulen-2-yl}-1H-pyrazolo[3,4-b]pyridin-3-yl)-2,3,4,5-tetrahydro-1,4-benzoxazepin-5-one] | < 100 | < 100
O=C1NCCOc2cc(-c3n[nH]c4ncc(-c5ccc6c(c5)CCNCC6)cc34)ccc21 [Example 53, 8-(5-(2,3,4,5-Tetrahydro-1H-benzo[d]azepin-7-yl)-1H-pyrazolo[3,4-b]pyridin-3-yl)-3,4-dihydrobenzo[f][1,4]oxazepin-5(2H)-one] | < 100 | < 100
O=C1NCCOc2cc(-c3n[nH]c4ncc(-c5ccc6c(c5)CCN(C5CCCC5)C6)cc34)ccc21 [Example 9, 8-(5-(2-Cyclopentyl-1,2,3,4-tetrahydroisoquinolin-6-yl)-1H-pyrazolo[3,4-b]pyridin-3-yl)-3,4-dihydrobenzo[f][1,4]oxazepin-5(2H)-one] | < 100 | < 100
CC1(O)CCCOc2cc(-c3n[nH]c4ncc(-c5ccc6c(c5)CCN(C5CCCC5)CC6)cc34)ccc21 (stereo not shown) [Example 28, (8-[5-(3-Cyclopentyl-2,3,4,5-tetrahydro-1H-3-benzazepin-7-yl)-1H-pyrazolo[3,4-b]pyridin-3-yl]-5-methyl-2,3,4,5-tetrahydro-1-benzoxepin-5-ol)] | 100 to 1000 | < 100
O=C1NCCOc2cc(-c3n[nH]c4ncc(-c5ccc6c(c5)CC[C@@H](N5CCCC5)CC6)cc34)ccc21 (single isomer, unassigned) [Example 57] | < 100 | < 100
CC1(C)NS(=O)(=O)c2cc(-c3n[nH]c4ncc(-c5ccc6c(c5)CCC(N5CCCC5)CC6)cc34)ccc21 (stereo not shown) [Example 32, 3,3-Dimethyl-6-{5-[7-(pyrrolidin-1-yl)-6,7,8,9-tetrahydro-5H-benzo[7]annulen-2-yl]-1H-pyrazolo[3,4-b]pyridin-3-yl}-2,3-dihydro-1λ^6,2-benzothiazole-1,1-dione] | < 100 | < 100
O=C1NCCOc2cc(-c3n[nH]c4ncc(-c5ccc6c(c5)CCC(N[C@H]5CCOC5)CC6)cc34)ccc21 (stereo partly drawn) [Example 45, 8-[5-(7-{[(3S)—Oxolan-3-yl]amino}-6,7,8,9-tetrahydro-5H-benzo[7]annulen-2-yl)-1H-pyrazolo[3,4-b]pyridin-3-yl]-2,3,4,5-tetrahydro-1,4-benzoxazepin-5-one] | < 100 | < 100
CC1(O)CCc2cc(-c3n[nH]c4ncc(-c5ccc6c(c5)CC[C@@H](N5CCCC5)CC6)cc34)ccc21 (stereo partly drawn) [Example 30, 1-Methyl-5-{5-[(7S)-7-(pyrrolidin-1-yl)-6,7,8,9-tetrahydro-5H-benzo[7]annulen-2-yl]-1H-pyrazolo[3,4-b]pyridin-3-yl}-2,3-dihydro-1H-inden-1-ol] | 100 to 1000 | < 100
CC1(C)NS(=O)(=O)c2cc(-c3n[nH]c4ncc(-c5ccc6c(c5)CCC(N5CCC[C@@H]5CO)CC6)cc34)ccc21 (stereo partly drawn) [Example 34, 6-(5-{7-[(2R)-2-(Hydroxymethyl)pyrrolidin-1-yl]-6,7,8,9-tetrahydro-5H-benzo[7]annulen-2-yl}-1H-pyrazolo[3,4-b]pyridin-3-yl)-3,3-dimethyl-2,3-dihydro-1λ^6,2-benzothiazole-1,1-dione] | < 100 | < 100
